The values below come from patent publication US5215889A, “Catalytic and reactive polypeptides and methods for their preparation and use” (The Regents of the University of California, priority 1989, dated 1993).

Experiment [1] addresses MOPC315 Fv variant Fv(Y34FL), Tyr 34L to Phe. As to the kind of experiment: Fv fluorescence titration with DNP-L-lysine. The format is binding, murine. The conditions noted are these: pH 6.8; ±SE. As for the experimental part:
(§1) FIG. 21 is a plot of Fv fluorescence titration with DNP-L-lysine as described in Example 6 of the Experimental section herein. Fv(315)(·),Fv(Y34FL)(Δ), or Fv(Y34HL)(o)(400 μl, 450-500 nM, ε280 nm=37,500 M^-1) in 100 mM potassium phosphate, pH 6.8 (buffer A), was titrated with solutions of 10-100 μM DNP-L-lysine (ε360 nm =17,500 M^-1) in buffer A while monitoring the protein fluorescence (excitation: 282 nm; emission: 343 nm). Fluorescence was corrected for the change in volume. Dissociation constants (KD) were determined by a modified Scatchard analysis.
(§2) The binding of ε-2,4-DNP-(L)-lysine (DNP Lys) by mutant wild type Fv proteins was assessed by titration of the intrinsic fluorescence of MOPC315 Fv (Hochman et al. (1973) supra; Hochman et al. (1977) supra), as shown in FIG. 21. […] DNP-aminoalkyl carboxylic acids of different lengths 6-9 (FIG. 16) were used to probe the location of the positively charged imidazole ring with respect to the DNP site in Fv(Y34HL) at pH 6.0.

In experiment [2] the target is MOPC315 Fv variant Fv(Y34HL), Tyr 34L to His. As to the kind of experiment: Fv fluorescence titration with DNP-L-lysine. The format is binding, murine. Particulars: pH 6.8; ±SE. As for the experimental part: as §1, §2
Experiment [3] addresses T1, MOPC315 Fv, wild type, Fv(315) (Mus musculus, UniProt P01729+P01822).
T1 construct: The Fv fragment (26 kD) is a heterodimer consisting of two peptides, VH (14 kD) and VL (12 kD); made in house; host or cells: MOPC315 myeloma ascites (Balb/c mice), IgA cleaved with pepsin
As to the kind of experiment: Fv fluorescence titration with DNP-L-lysine. The conditions noted are these: pH 6.8; ±SE. It is filed as binding, murine. As to the method: as §1, §2

In experiment [4] the target is T2, MOPC315 Fv variant Fv(Y34HL), Tyr 34L to His (Mus musculus, UniProt P01729+P01822, Y53H).
T2 construct: Antibody-derived VH was prepared by denaturing ion exchange chromatography of authentic MOPC315 Fv, obtained from pepsin digestion of purified IgA; lambda cII fusion with Factor Xa site (IleGluGlyArg) (N, cleaved yes); made in house; host or cells: VL: E. coli MZ1 (cII fusion, inclusion bodies); VH: pepsin-cleaved MOPC315 IgA from mouse ascites
As to the kind of experiment: Hydrolysis of DNP coumarin esters 1-3 by Fv. The format is biochemical, murine. As for the experimental part: (§3) FIG. 22 is a Lineweaver-Burke plot of initial rate data obtained for the hydrolysis of 1 as described in Example 6 of the Experimental section herein. Four μl of a 100-fold concentrated solution of substrate 1 in DMSO was added to the 400 μl of Fv (115 nM) in buffer A while monitoring 7-hydroxycoumarin fluorescence at 25° C. (excitation:355nm; emission: 457 nm). A standard of 7-hydroxycoumarin was added at the completion of each assay to assess quenching of coumarin fluorescence by DNP at high substrate concentrations. The buffer background rate was subtracted from the initial rates. Each point represents the average velocity of at least duplicate experiments. Factor X, Factor Xa, or Russell's viper venom had no hydrolytic activity towards 1.
(§4) The ability of wild type and mutant Fvs to hydrolyze esters 1-3 was assayed by measuring the rate of coumarin release fluorimetrically at pH 6.8 (Pollack et al. (1988) supra; Pollack (1989) supra). […] Under these conditions, Fv(Y34HL) turns over at least 11 times and still retains 44% of its activity. The loss of activity is likely due to the accumulation of the inhibitory reaction product 8. […] Ester 2 was a poor substrate (kcat (2)=0.015 min^-1); and the hydrolysis of 3 was not accelerated (kcat (3)<0.005 min^-1). […] The initial rate of hydrolysis of 1 by Fv(Y34HL) at pH 6.8 is approximately 45-fold faster than the reaction with either […] (Table 2). At pH 8.7, the reactivity of Fv(Y34HL) and Fv(315) both increase, but differentially (v[Fv(Y34HL ]/v[Fv(315)]=3.3, at 10 μM 1). Under these conditions Fv(Y34HL) catalytically hydrolyzes 1 while Fv(315) reacts stoichiometrically. The increased reactivity of Fv(315) at higher pH may be due to deprotonation of the tyrosine hydroxyl and subsequent transesterification to form a relatively stable phenol ester.

Experiment [5] relates to MOPC315 Fv variant Fv(Y34FL), Tyr 34L to Phe. As to the kind of experiment: Hydrolysis of DNP coumarin esters 1-3 by Fv. It is filed as biochemical, murine. Particulars: pH 6.8. As for the experimental part: as §3, §4
The target in experiment [6] is T1, MOPC315 Fv, wild type, Fv(315). As to the kind of experiment: Hydrolysis of DNP coumarin esters 1-3 by Fv. The format is biochemical, murine. Particulars: pH 6.8. As for the experimental part: as §3, §4

T1 sequence (P01822 19-137): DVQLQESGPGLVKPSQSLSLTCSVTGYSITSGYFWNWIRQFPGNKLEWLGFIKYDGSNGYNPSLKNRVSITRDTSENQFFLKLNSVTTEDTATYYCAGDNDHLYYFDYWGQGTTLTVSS
T1 sequence (P01729 20-129): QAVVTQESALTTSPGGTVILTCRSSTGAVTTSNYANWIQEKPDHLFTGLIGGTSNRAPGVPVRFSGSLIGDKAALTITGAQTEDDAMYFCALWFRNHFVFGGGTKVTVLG
T2 sequence (P01729 with tags, fused parts or gaps Y53H): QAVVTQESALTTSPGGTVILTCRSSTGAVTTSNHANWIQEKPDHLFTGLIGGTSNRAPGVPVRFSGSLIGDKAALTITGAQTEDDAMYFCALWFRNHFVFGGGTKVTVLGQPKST
T2 sequence (P01822 19-137): as the sequence (P01822 19-137) above

By Kd is commonly meant the concentration at which binding is half-saturated. A low value points to tighter binding. The term Ki denotes the equilibrium dissociation constant of an inhibitor or competing ligand from its target. Low readings indicate tighter binding, high ones weaker binding. As to `N[C@@H](CCCCNc1ccc([N+](=O)[O-])cc1[N+](=O)[O-])C(=O)O` [DNP-L-lysine, ε-2,4-DNP-(L)-lysine], the dissociation constant Kd in experiment [1] stood at 270 ± 30 nM; in experiment [2] it was 1400 ± 300 nM; in experiment [3] it was 270 ± 30 nM. In experiment [4], this molecule yielded a Ki of 3800 ± 1500 nM.

In the case of `O=C(CCCCNc1ccc([N+](=O)[O-])cc1[N+](=O)[O-])Oc1ccc2ccc(=O)oc2c1` [compound 1, 7-hydroxycoumarin ester of 5-(2,4-dinitrophenyl)-aminopentanoic acid], the “kcat (Table 2, Fv(Y34FL))” value in experiment [5] came to 0.004 min. Moreover, in experiment [4] (pH 6.8, SE (n = 3)), the “kcat (Table 2, Fv(Y34HL))” value is listed as 0.18 ± .03 min. Also, the “kcat (Table 2, Fv(315))” value in experiment [6] is given as 0.004 min.
